# Literature values as cited in patent US11911505B2, “Liquid formulations of hypoglycaemic sulfonamides” (AMMTEK, priority 2012, dated 2024).
# Conditions: 27° C.
row,solubility in water [µg/mL],Compound
1,48,CC(=O)c1ccc(S(=O)(=O)NC(=O)NC2CCCCC2)cc1 [acetohexamide]
2,38,CCC1=C(C)CN(C(=O)NCCc2ccc(S(=O)(=O)NC(=O)N[C@H]3CC[C@H](C)CC3)cc2)C1=O [glimepiride]
3,2,COc1ccc2c(c1)C(=O)N(CCc1ccc(S(=O)(=O)NC(=O)NC3CCCCC3)cc1)C(=O)C2(C)C [gliquidone]
